Reference: US10086001B2, “Composition for the treatment of cystic fibrosis” (SciPharm SàRL, priority 2009, dated 2018)

Assays:
IB3-1 cells = assay: Accumulation of [3H]cAMP in IB3-1 cells; type: cell-based, human; details: for accumulation of cAMP: bronchoepithelial IB3-1 cells
Description: IB3-1 cells were plated on 6 well-plates (0.2*10^6 cells/well) in complete growth medium (LHC-8+5% FCS). The following day, the adenine nucleotide pool was metabolically labelled by incubation with [3H]adenine (1 μCi/well) in Dulbecco's Modified Eagle Medium (DMEM) containing adenosine deaminase (1 unit/ml) for 4 h. Cyclc AMP formation was stimulated by 20 μM forskolin or the PGI2-analogue treprostinil (Remodulin®). The assay was performed in triplicates. The formation of [^3H]cAMP was determined by sequential chromatography on Dowex 50WX-4 and neutral alumina columns followed by liquid scintillation counting of the eluate.

[1] = system: human GFP-tagged wild type CFTR; assay: Whole cell patch clamp, activation of Cl-current in IB3-1 cells transiently expressing GFP-tagged wild type CFTR; type: cell-based
Description: The whole cell patch clamp technique was used for current recordings performed at 22±1.5° C. using an Axoclamp 200B patch clamp amplifier (Axon Instruments). Pipettes had resistances between 1 and 2 MΩ when filled with the recording pipette solution (composition: 110 mM CsCl, 5 mM EGTA, 2 mM MgCl2, 1 mM K2.ATP, 10 mM Hepes, pH adjusted to 7.2 with CsOH). Voltage-clamp protocols and data acquisition were performed with pclamp 6.0 software (Axon Instruments). Data were low-pass filtered at 2 kHz (−3 dB) and digitized at 10-20 kHz. Cells were continuously superfused with external solution (composition: 145 mM NaCl, 4.5 mM KCl, 2 mM CaCl2, 1 mM MgCl2, 5 mM glucose, 10 mM Hepes, pH adjusted to 7.4 with NaOH). When indicated, the external solution contained Treprostinil (10 μM) or forskolin (5 μM), switching between solutions was achieved by electronically controlled pressure valves.
I3B-1 cells were grown on dishes (Nunc, 3.5 cm diameter) covered with fibronectin (10 μg/mL) rat collagen 1 (30 μg/mL) and BSA 10 μg/mL) in LHC-8 medium (Gibco) containing 5% fetal calf serum (FCS). Cells were transiently transfected with a plasmid driving the expression of human GFP-tagged wild type CFTR by using Lipofectamine Plus® (Invitrogen) according to the instructions of the manufacturer.
Representative current amplitudes recorded in the whole cell patch clamp configuration at +60 mV. A transiently transfected I3B-1 cell expressing GFP-tagged wild type CFTR was selected under fluorescent light and clamped to a holding potential at −40 mV. Depolarization was induced by a voltage step to +60 mV for 50 ms and the current amplitude was recorded. Wash-in of Treprostinil (10 μM final concentration, TP) was initiated at the time point 50 s and terminated at 125 s. Forskolin was washed in at 275 s and was removed at 375 s.

O=C1CN2Cc3c(ccc(Cl)c3Cl)N=C2N1 [Anagrelide]
accumulation of cAMP (IB3-1 cells): did not induce any accumulation cAMP

CCCCC[C@H](O)CC[C@@H]1[C@H]2Cc3cccc(OCC(=O)[O-])c3C[C@H]2C[C@H]1O.[Na+] [Treprostinil, (1R,2R,3aS,9aS)-[[2,3,3a,4,9,9a-hexahydro-2-hydroxy-1-[(3S)-3-hydroxyoctyl]-1H-benz[f]inden-5-yl]oxy]acetic acid monosodium salt]
EC50 (IB3-1 cells; Homo sapiens, IB3-1 cells, [3H]adenine labelling, FIG. 1, read-out: Half-maximum stimulation of cAMP accumulation): 0.3 to 1 µM | accumulation of cAMP (IB3-1 cells): concentration-dependent accumulation of cAMP | activation of the current induced by a depolarization from −40 mV holding potential to +60 mV ([1]; 10 μM Treprostinil, IB3-1 cell expressing CFTR-wt, FIG. 2): robust activation of the current | time for current to decay to basal after washout ([1]; 10 μM Treprostinil, whole cell patch clamp at +60 mV): ~100 s | delay of response (maximum effect after wash-in, hysteresis in turn-off) ([1]; Treprostinil 10 μM or forskolin 5 μM, whole cell patch clamp): only observed several s after wash-in
